BindingDB's records for doi:10.1016/S0960-894X(00)80421-7 (1992)

Assay: Tested for the ability to inhibit Ins(1,4,5)P 3-phosphatase

**Q.** Which Ki does the source give for OC1C(O)C(OP(O)(O)=S)C(OP(O)(O)=S)C(O)C1OP(O)(O)=S (stereo not drawn) [(-)-chiro-inositol 1,4,6-trisphosphorothioate] here?
**A.** 978 µM
